Laboratory results reported in paper PMC6757420, “Identifying the active components of Baihe–Zhimu decoction that ameliorate depressive disease by an effective integrated strategy: a systemic pharmacokinetics study combined with classical depression model tests” (Chinese Medicine, 2019).
Read-outs that look alike come from different tables or passages of the source.

Legend:
[1] = pharmacokinetic study of five major components after oral administration of BZD (HPLC-QQQ MS); format: in vivo, Sprague–Dawley (SD) rats; details: rats, oral BZD 15 g/kg; for half-life / AUC(0-t) / Cmax / Tmax / T1/2 / AUC0–t: n = 5; for AUC(0-t): read-out: AUC0–t; for ER (liver extraction ratio): from portal vein plasma and systemic plasma
Description: The HPLC-QQQ MS method was developed according to a previous study in our group. Briefly, five compounds were simultaneously determined in plasma, liver and brain samples using a 1260 Series liquid chromatography system (Agilent Technologies, Palo Alto, CA, USA) coupled to a 6460 triple quadrupole mass spectrometer with an electrospray ionization source (Agilent Technologies, Palo Alto, CA, USA). Chromatographic separation was performed on an ACE Super C18 column (100 mm × 2.1 mm, 3.0 µm, Advanced Chromatography Technologies Ltd. Aberdeen, Scotland) at a temperature of 40 °C. The mobile phase consisted of water containing 0.1% formic acid (A) and acetonitrile containing 0.1% formic acid (B). The gradient program was performed as follows: 0–3 min, 92% A; 3.5–4.0 min, 88–60% A; 5.5–6 min, 60–55% A; 6.6–7 min, 55–5% A; 11–11.01 min, 5–92% A; 11.01–13.5 min, 92% A. The flow rate was set to 0.35 mL/min in the time range of 0–6.6 min and kept at 0.45 mL/min between 7 and 13.5 min. Five components were monitored in negative multiple reaction monitoring (MRM) mode. The parameters of the mass spectrometer were as follows: capillary voltage, 3500 V; nebulizer, 45 psi; gas temperature, 350 °C; gas flow rate, 12 L/min; sheath gas temperature, 400 °C; sheath gas flow rate, 8 L/min. MassHunter Workstation software (Agilent Technologies, Palo Alto, CA, USA) was used for system operation and data analysis.
All Sprague–Dawley (SD) rats and ICR mice were purchased from Shanghai SLAC Laboratory Animal Co., Ltd. and kept in the breeding room at 22 ± 2 °C and 50 ± 10% humidity in Shanghai Institute of Materia Medica (SIMM). The experimental protocols were approved by the Institutional Animal Care and Use Committee in SIMM. After 1 week of acclimation, all the SD rats were orally administered BZD (15 g/kg). The biological samples were collected from the rats after fasting for 12 h. After anaesthetization, the rats were dissected at 5 min, 15 min, 30 min, 1 h, 2 h, 4 h, 7 h, 10 h, 20 h and 40 h (n = 5 for each time-point). The hepatic portal vein plasma (2 mL) and the systemic plasma (6–8 mL) were subsequently harvested, and finally the liver and brain tissue samples were collected. The plasma sample were centrifuged at 9500×g for 5 min, and the tissue samples were washed with saline solution. All samples were stored at − 80 °C until analysis. The samples were prepared according to the method described in the previous study by our group.
A noncompartmental analysis was carried out using WinNonlin software (Pharsight 6.2, NC, USA) to calculate the PK parameters. The significance of the results in behavior assessment was analyzed by unpaired Student’s t-tests. A P value less than 0.05 was considered significant. The liver extraction ratio (ER) indicated the fraction of hepatic clearance and first-pass effect, and the calculation formula was as reported in a previous study by our group.

ICR mice [2] = assay: forced swimming test (FST); format: in vivo; details: Table 4, oral administration for 8 days, n = 8, 10 mg/kg, control 118.1 ± 24.3
Description: (§1) The antidepressant activity of the drugs was evaluated by classic behavioral measurements, such as the forced swimming test (FST) and tail suspension test (TST). All the ICR mice were randomly divided into several groups (n = 8) as follows: a control group with stimulation and different test groups subjected to FST and TST after the oral administration of different drugs for 8 days, including fluoxetine (10 mg/kg), BZD (3 g/kg), ZD (3 g/kg), Baihe decoction (BD, 3 g/kg), PZ (21.2 mg/kg), XZ (21.2 mg/kg), SZ (21.2 mg/kg), timosaponin BII (10 mg/kg) and timosaponin BIII (10 mg/kg).
(§2) The FST was performed according to a previously described method with minor modifications. Briefly, each mouse was individually placed in an open water-filled cylinder (H: 50 cm; Ø: 20 cm; water depth: 35 cm; temperature: 23–25 °C) and allowed to swim for a period of 6 min. The total time of immobility was recorded during the last 4 min of the testing duration. Immobility is defined as the mice floating in the water without movement. The TST was conducted as described in the literature. Briefly, the mice were suspended 20 cm above the floor for 6 min. The time of immobility was recorded after the first 2 min. Mice in a completely motionless state were considered immobile.

ICR mice [3] = assay: tail suspension test (TST); format: in vivo; details: Table 4, oral administration for 8 days, n = 8, 10 mg/kg, control 102.0 ± 16.9
Description: as §1, §2

serotonin (5-HT) = assay: content of serotonin (5-HT) by ELISA kit; format: in vivo, ICR mice; details: Table 5; 10 mg/kg oral; control 636.2 ± 80.1
Description: as §1
(§3) The contents of dopamine (DA) and serotonin (5-HT) in the plasma were determined using ELISA Kits (Shanghai Jianglai Biotech Co., Ltd., Shanghai, China) according to the manufacturer’s instructions.

dopamine (DA) = assay: content of dopamine (DA) by ELISA kit; format: in vivo, ICR mice; details: Table 5; 10 mg/kg oral; control 171.6 ± 54.5
Description: as §1, §3

depressive rats = details: cited from earlier work
[4] = Sprague-Dawley, rat, hepatic portal vein plasma, po, 15 g/kg, portal vein plasma
[5] = Sprague-Dawley, rat, hepatic portal vein plasma, po, 15 g/kg, portal vein plasma, read-out: Cmax
[6] = Sprague-Dawley, rat, hepatic portal vein plasma, po, 15 g/kg, portal vein plasma, read-out: Tmax
[7] = Sprague-Dawley, rat, liver, po, 15 g/kg, liver, read-out: Cmax
[8] = Sprague-Dawley, rat, liver, po, 15 g/kg, liver, read-out: Tmax
[9] = Sprague-Dawley, rat, liver, po, 15 g/kg
[10] = Sprague-Dawley, rat, systemic plasma, po, 15 g/kg, systemic plasma
[11] = Sprague-Dawley, rat, systemic plasma, po, 15 g/kg, systemic plasma, read-out: Cmax
[12] = Sprague-Dawley, rat, systemic plasma, po, 15 g/kg, systemic plasma, read-out: Tmax
[13] = Sprague-Dawley, rat, systemic plasma, po, 15 g/kg

| SMILES | half-life [1, 4] | AUC(0-t) [1, 4] | Cmax [1, 5] | Tmax [1, 6] | Cmax [1, 7] | Tmax [1, 8] | half-life [1, 9] | AUC(0-t) [1, 10] | Cmax [1, 11] | Tmax [1, 12] | half-life [1, 13] | ER (liver extraction ratio) [1] | Immobility time (mean ± SD, s) FST (ICR mice [2]) | Immobility time (mean ± SD, s) TST (ICR mice [3]) | Content (ng/g) 5-HT (serotonin (5-HT)) | Content (ng/g) DA (dopamine (DA)) | other results |
| --- | --- | --- | --- | --- | --- | --- | --- | --- | --- | --- | --- | --- | --- | --- | --- | --- | --- |
| C[C@H]1CC[C@@]2(OC1)O[C@H]1C[C@H]3[C@@H]4CC[C@@H]5C[C@@H](O[C@@H]6O[C@H](CO)[C@H](O)[C@H](O)[C@H]6O[C@@H]6O[C@H](CO)[C@@H](O)[C@H](O)[C@H]6O)CC[C@]5(C)[C@H]4CC[C@]3(C)[C@H]1[C@@H]2C [Timosaponin AIII, timosaponin AIII] | 10.3 h | 583 ± 105 ng·h/mL | 61.8 ± 25.6 ng/mL | 4 h | 9360 ± 244 ng/g | 20 h | 12.2 h | 156 ± 21.6 ng·h/mL | 16 ± 5.16 ng/mL | 4 h | 11.2 h | 73.20% |  |  |  |  | ER (liver extraction ratio) ([1]; listed as timosaponin AIII): 73.21% |
| C[C@@H](CC[C@@]1(O)O[C@H]2C[C@H]3[C@@H]4CC[C@@H]5C[C@@H](O[C@@H]6O[C@H](CO)[C@H](O)[C@H](O)[C@H]6O[C@@H]6O[C@H](CO)[C@@H](O)[C@H](O)[C@H]6O)CC[C@]5(C)[C@H]4CC[C@]3(C)[C@H]2[C@@H]1C)CO[C@@H]1O[C@H](CO)[C@@H](O)[C@H](O)[C@H]1O [Timosaponin BII, timosaponin BII] | 119 h | 1090 ± 184 ng·h/mL | 880 ± 160 ng/mL | 0.25 h | 302 ± 102 ng/g | 0.08 h | 116 h | 976 ± 254 ng·h/mL | 277 ± 48.4 ng/mL | 0.25 h | 35.8 h | 10.88% | 72.1 ± 19.6 s | 48.2 ± 23.1 s | 716.5 ± 90.4 ng/g | 196.9 ± 56.7 ng/g | Cmax ([1]; Sprague-Dawley, rat, cerebellum, po, 15 g/kg, cerebellum, read-out: Cmax): 1170 ± 93.4 ng/g; Tmax ([1]; Sprague-Dawley, rat, cerebellum, po, 15 g/kg, cerebellum, read-out: Tmax): 0.25 h; half-life ([1]; Sprague-Dawley, rat, cerebellum, po, 15 g/kg): 16.2 h; Cmax ([1]; Sprague-Dawley, rat, hippocampus, po, 15 g/kg, hippocampus, read-out: Cmax): 372 ± 154 ng/g; Tmax ([1]; Sprague-Dawley, rat, hippocampus, po, 15 g/kg, hippocampus, read-out: Tmax): 10 h; half-life ([1]; Sprague-Dawley, rat, hippocampus, po, 15 g/kg): 27.4 h; ER (liver extraction ratio) ([1]; listed as timosaponin BII): 10.88%; antidepressant effect (depressive rats; depressive rats, likely related to the content of 5-HT in the brain): significant antidepressant effect |
| CC1=C(CC[C@H](C)CO[C@@H]2O[C@H](CO)[C@@H](O)[C@H](O)[C@H]2O)O[C@H]2C[C@H]3[C@@H]4CC[C@@H]5C[C@@H](O[C@@H]6O[C@H](CO)[C@H](O)[C@H](O)[C@H]6O[C@@H]6O[C@H](CO)[C@@H](O)[C@H](O)[C@H]6O)CC[C@]5(C)[C@H]4CC[C@]3(C)[C@@H]12 [Timosaponin BIII, timosaponin BIII] |  |  |  |  |  |  |  |  |  |  |  | 11.57% | 68.6 ± 23.2 s | 58.4 ± 15.6 s | 705.6 ± 47.7 ng/g | 191.3 ± 69.8 ng/g | Cmax ([1]; cerebellum): 349.41 ± 34.90 ng/g; T1/2 ([1]; cerebellum): 20.65 h; Tmax ([1]; cerebellum): 0.25 h; ER (liver extraction ratio) ([1]; listed as timosaponin BIII): 11.57%; Cmax ([1]; hippocampus): 198.23 ± 122.31 ng/g; T1/2 ([1]; hippocampus): 1.52 h; Tmax ([1]; hippocampus): 1.00 h; Cmax ([1]; liver): 158.66 ± 22.12 ng/g; T1/2 ([1]; liver): 13.81 h; Tmax ([1]; liver): 0.08 h; AUC0–t ([1]; portal vein plasma): 369.20 ± 74.63 ng/mL; Cmax ([1]; portal vein plasma): 226.39 ± 43.92 ng/mL; T1/2 ([1]; portal vein plasma): 16.59 h; Tmax ([1]; portal vein plasma): 0.25 h; AUC0–t ([1]; systemic plasma): 326.47 ± 54.29 ng/mL; Cmax ([1]; systemic plasma): 114.14 ± 13.38 ng/mL; T1/2 ([1]; systemic plasma): 22.82 h; Tmax ([1]; systemic plasma): 0.25 h; antidepressant effect (depressive rats; rats, by regulating inflammatory cytokines, BNDF signaling and synaptic plasticity): significantly ameliorated depressive effects |
